Measured values from PMC5914528 (Molecular microbiology, 2018).

How the values were obtained:
QscR [1] = target: T1, QscR (Pseudomonas aeruginosa, UniProt G3XD77); settings: DNA binding of QscR with ligand; Eqn 5
QscR [2] = target: T1, QscR; format: cell-based; settings: for Activation (%): 100% = activity of 3OC12-HSL
LasR = LasR (Pseudomonas aeruginosa, UniProt P25084); assay: LasR agonism/antagonism assay, E. coli reporter strain; format: cell-based; settings: Table S2 (supplement not shown)
Chain of LasR (P25084 whole entry): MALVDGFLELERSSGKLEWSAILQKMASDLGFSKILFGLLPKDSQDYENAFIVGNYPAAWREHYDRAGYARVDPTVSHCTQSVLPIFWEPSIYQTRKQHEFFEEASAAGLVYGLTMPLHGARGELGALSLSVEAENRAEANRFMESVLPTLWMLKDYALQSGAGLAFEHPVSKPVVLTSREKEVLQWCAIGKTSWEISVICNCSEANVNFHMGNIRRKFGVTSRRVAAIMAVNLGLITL

| SMILES | Hill coefficient (QscR [1]) | Activation (%) (QscR [2]) | EC50 (QscR [2]; E. coli JLD271 QscR reporter) | activity on LasR in cell-based reporter assays (LasR) |
| --- | --- | --- | --- | --- |
| O=C(CCCOc1ccc(Cl)cc1)NC1CCOC1=O (stereo not drawn) [CL] | 1.9 ± 0.3 | 86% | 16 nM | inhibited |
| CCCCCCCCCC(=O)CC(=O)N[C@H]1CCOC1=O [3OC12-HSL, N-(3-oxododecanoyl) L-homoserine lactone] | 1.7 ± 0.4 | 100% |  |  |
